Experimental data as given in ChEMBL document CHEMBL1201862, “PubChem BioAssay data set” (2004).
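96-well plates; 48 h exposure; 5 concentrations. Endpoints by linear interpolation between flanking doses. Not reached: highest tested concentration assigned. The concentration for 50% growth inhibition is given as GI50.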 Calls of active or inactive are those of the source. Rule as the data show it: active = GI50 up to about 1.1 µM and inactive = higher.

Tests used:
Assay in all cases: NCI anticancer screen, dose series, 48 h
SK-MEL-28 = test system: SK-MEL-28
OVCAR-8 = test system: OVCAR-8
IGROV-1 = test system: IGROV-1
HOP-62 = test system: HOP-62
SNB-78 = test system: SNB-78
DLD-1 = test system: DLD-1
COLO 205 = test system: COLO 205
RPMI-8226 = test system: RPMI-8226
LXFL 529 = test system: LXFL 529
OVCAR-3 = test system: OVCAR-3
SW-620 = test system: SW-620
TK-10 = test system: TK-10
HT-29 = test system: HT-29
KM12 = test system: KM12
SF-295 = test system: SF-295
LOX IMVI = test system: LOX IMVI
NCI-H226 = test system: NCI-H226
ACHN = test system: ACHN
SK-MEL-2 = test system: SK-MEL-2
M19-MEL = test system: M19-MEL
K562 = test system: K562
KM-20L2 = test system: KM-20L2
SK-OV-3 = test system: SK-OV-3
SK-MEL-5 = test system: SK-MEL-5
UACC-62 = test system: UACC-62
M14 = test system: M14
Malme-3M = test system: Malme-3M
NCI-H460 = test system: NCI-H460
SF-268 = test system: SF-268
SNB-75 = test system: SNB-75
NCI-H23 = test system: NCI-H23
SF-539 = test system: SF-539
HCT-15 = test system: HCT-15
NCI-H522 = test system: NCI-H522
OVCAR-4 = test system: OVCAR-4
RXF 393 = test system: RXF 393
DMS-273 = test system: DMS-273
A549 = test system: A549
SN12C = test system: SN12C
CCRF-CEM = test system: CCRF-CEM
HCT-116 = test system: HCT-116
UACC-257 = test system: UACC-257
U-251 = test system: U-251
OVCAR-5 = test system: OVCAR-5
HOP-92 = test system: HOP-92
SR = test system: SR
HOP-18 = test system: HOP-18
HL-60 = test system: HL-60
786-0 = test system: 786-0
CAKI-1 = test system: CAKI-1
UO-31 = test system: UO-31
EKVX = test system: EKVX
SNB-19 = test system: SNB-19
MOLT-4 = test system: MOLT-4
A498 = test system: A498
DMS-114 = test system: DMS-114
HCC 2998 = test system: HCC 2998

Question: What does the source list for `COc1cc(C(C#N)NNc2nc(C)cc(O)n2)cc(OC)c1OC` (stereo not given)?
Answer: GI50 (SK-MEL-28): > 100 µM (inactive); GI50 (OVCAR-8): > 100 µM (inactive); GI50 (IGROV-1): > 100 µM (inactive); GI50 (HOP-62): > 100 µM (inactive); GI50 (SNB-78): > 100 µM (inactive); GI50 (DLD-1): > 100 µM (inactive); GI50 (COLO 205): > 100 µM (inactive); GI50 (RPMI-8226): > 100 µM (inactive); GI50 (LXFL 529): > 100 µM (inactive); GI50 (OVCAR-3): > 100 µM (inactive); GI50 (SW-620): > 100 µM (inactive); GI50 (TK-10): > 100 µM (inactive); GI50 (HT-29): > 100 µM (inactive); GI50 (KM12): > 100 µM (inactive); GI50 (SF-295): > 100 µM (inactive); GI50 (LOX IMVI): > 100 µM (inactive); GI50 (NCI-H226): > 100 µM (inactive); GI50 (ACHN): > 100 µM (inactive); GI50 (SK-MEL-2): > 100 µM (inactive); GI50 (M19-MEL): > 100 µM (inactive); GI50 (K562): > 100 µM (inactive); GI50 (KM-20L2): > 100 µM (inactive); GI50 (SK-OV-3): > 100 µM (inactive); GI50 (SK-MEL-5): > 100 µM (inactive); GI50 (UACC-62): > 100 µM (inactive); GI50 (M14): > 100 µM (inactive); GI50 (Malme-3M): > 100 µM (inactive); GI50 (NCI-H460): > 100 µM (inactive); GI50 (SF-268): > 100 µM (inactive); GI50 (SNB-75): 37.2 µM (inactive); GI50 (NCI-H23): > 100 µM (inactive); GI50 (SF-539): > 100 µM (inactive); GI50 (HCT-15): > 100 µM; GI50 (NCI-H522): > 100 µM (inactive); GI50 (OVCAR-4): > 100 µM (inactive); GI50 (RXF 393): > 100 µM (inactive); GI50 (DMS-273): > 100 µM (inactive); GI50 (A549): > 100 µM (inactive); GI50 (SN12C): > 100 µM (inactive); GI50 (CCRF-CEM): > 100 µM (inactive); GI50 (HCT-116): > 100 µM (inactive); GI50 (UACC-257): > 100 µM (inactive); GI50 (U-251): > 100 µM (inactive); GI50 (OVCAR-5): > 100 µM (inactive); GI50 (HOP-92): 51.6 µM (inactive); GI50 (SR): 37.5 µM (inactive); GI50 (HOP-18): > 100 µM (inactive); GI50 (HL-60): > 100 µM (inactive); GI50 (786-0): > 100 µM (inactive); GI50 (CAKI-1): > 100 µM (inactive); GI50 (UO-31): 75 µM (inactive)

Question: `COc1ccc(C)cc(O)c1=O` was tested. Which GI50 (SK-MEL-28) did it give?
Answer: 57.4 µM (inactive)

Question: And the GI50 (IGROV-1)?
Answer: 39.9 µM (inactive)

Question: What about the GI50 (HOP-62) of the same compound?
Answer: 54.6 µM (inactive)

Question: And the GI50 (SNB-78)?
Answer: > 100 µM (inactive)

Question: And the GI50 (DLD-1)?
Answer: 35.1 µM (inactive)

Question: What about the GI50 (COLO 205) of the same compound?
Answer: 30.8 µM (inactive)

Question: What about the GI50 (RPMI-8226) of the same compound?
Answer: 39.6 µM (inactive)

Question: What about the GI50 (LXFL 529) of the same compound?
Answer: 16.2 µM (inactive)

Question: And the GI50 (OVCAR-3)?
Answer: 31.6 µM (inactive)

Question: What about the GI50 (EKVX) of the same compound?
Answer: 38.8 µM (inactive)

Question: What about the GI50 (SW-620) of the same compound?
Answer: 44 µM (inactive)

Question: And the GI50 (TK-10)?
Answer: > 100 µM (inactive)

Question: What about the GI50 (HT-29) of the same compound?
Answer: 44 µM (inactive)

Question: What about the GI50 (KM12) of the same compound?
Answer: > 100 µM (inactive)

Question: And the GI50 (SF-295)?
Answer: 27.9 µM (inactive)

Question: What about the GI50 (LOX IMVI) of the same compound?
Answer: 11.9 µM (inactive)

Question: And the GI50 (NCI-H226)?
Answer: > 100 µM (inactive)

Question: And the GI50 (ACHN)?
Answer: 22.8 µM (inactive)

Question: And the GI50 (SK-MEL-2)?
Answer: 94.8 µM (inactive)

Question: And the GI50 (M19-MEL)?
Answer: 32.3 µM (inactive)

Question: What about the GI50 (K562) of the same compound?
Answer: 45.4 µM (inactive)

Question: What about the GI50 (KM-20L2) of the same compound?
Answer: 40.2 µM (inactive)

Question: What about the GI50 (SK-OV-3) of the same compound?
Answer: > 100 µM (inactive)

Question: What about the GI50 (SK-MEL-5) of the same compound?
Answer: 67.8 µM (inactive)

Question: What about the GI50 (UACC-62) of the same compound?
Answer: 22.3 µM (inactive)

Question: And the GI50 (M14)?
Answer: 21.2 µM (inactive)

Question: And the GI50 (Malme-3M)?
Answer: 57.1 µM (inactive)

Question: What about the GI50 (NCI-H460) of the same compound?
Answer: 17.7 µM (inactive)

Question: And the GI50 (SF-268)?
Answer: 28.6 µM (inactive)

Question: And the GI50 (SNB-75)?
Answer: > 100 µM (inactive)

Question: And the GI50 (NCI-H23)?
Answer: 40.1 µM (inactive)

Question: And the GI50 (SF-539)?
Answer: 42.5 µM (inactive)

Question: What about the GI50 (SNB-19) of the same compound?
Answer: 95.1 µM (inactive)

Question: And the GI50 (HCT-15)?
Answer: > 100 µM

Question: What about the GI50 (NCI-H522) of the same compound?
Answer: 30.4 µM (inactive)

Question: And the GI50 (OVCAR-4)?
Answer: 45 µM (inactive)

Question: And the GI50 (RXF 393)?
Answer: 39.7 µM (inactive)

Question: And the GI50 (DMS-273)?
Answer: 44.7 µM (inactive)

Question: And the GI50 (A549)?
Answer: > 100 µM (inactive)

Question: What about the GI50 (SN12C) of the same compound?
Answer: 38.5 µM (inactive)

Question: And the GI50 (CCRF-CEM)?
Answer: 10.7 µM (inactive)

Question: And the GI50 (HCT-116)?
Answer: 33.7 µM (inactive)

Question: What about the GI50 (UACC-257) of the same compound?
Answer: 33.2 µM (inactive)

Question: And the GI50 (MOLT-4)?
Answer: 9.06 µM (inactive)

Question: What about the GI50 (U-251) of the same compound?
Answer: 42.8 µM (inactive)

Question: What about the GI50 (OVCAR-5) of the same compound?
Answer: 68.4 µM (inactive)

Question: And the GI50 (HOP-92)?
Answer: 26.2 µM (inactive)

Question: What about the GI50 (SR) of the same compound?
Answer: 5.28 µM (inactive)

Question: What about the GI50 (A498) of the same compound?
Answer: 38.4 µM (inactive)

Question: And the GI50 (HOP-18)?
Answer: 40.9 µM (inactive)

Question: What about the GI50 (HL-60) of the same compound?
Answer: 19.1 µM (inactive)

Question: What about the GI50 (DMS-114) of the same compound?
Answer: 14 µM (inactive)

Question: What about the GI50 (786-0) of the same compound?
Answer: 10.5 µM (inactive)

Question: And the GI50 (CAKI-1)?
Answer: 28.2 µM (inactive)

Question: What about the GI50 (UO-31) of the same compound?
Answer: 27.4 µM (inactive)

Question: Which results are given for `NCCN1C(=O)C2C3c4ccccc4C(c4ccccc43)C2C1=O` (stereo not given)?
Answer: GI50 (SK-MEL-28): > 100 µM (inactive); GI50 (OVCAR-8): > 100 µM (inactive); GI50 (IGROV-1): > 100 µM (inactive); GI50 (HOP-62): > 100 µM (inactive); GI50 (SNB-78): > 100 µM (inactive); GI50 (DLD-1): > 100 µM (inactive); GI50 (COLO 205): > 100 µM (inactive); GI50 (RPMI-8226): > 100 µM (inactive); GI50 (HCC 2998): > 100 µM (inactive); GI50 (LXFL 529): > 100 µM (inactive); GI50 (OVCAR-3): > 100 µM (inactive); GI50 (EKVX): > 100 µM (inactive); GI50 (SW-620): > 100 µM (inactive); GI50 (TK-10): > 100 µM (inactive); GI50 (HT-29): > 100 µM (inactive); GI50 (KM12): > 100 µM (inactive); GI50 (SF-295): > 100 µM (inactive); GI50 (NCI-H226): > 100 µM (inactive); GI50 (ACHN): > 100 µM (inactive); GI50 (SK-MEL-2): > 100 µM (inactive); GI50 (M19-MEL): > 100 µM (inactive); GI50 (K562): > 100 µM (inactive); GI50 (KM-20L2): > 100 µM (inactive); GI50 (SK-OV-3): > 100 µM (inactive); GI50 (SK-MEL-5): > 100 µM (inactive); GI50 (UACC-62): > 100 µM (inactive); GI50 (M14): > 100 µM (inactive); GI50 (Malme-3M): > 100 µM (inactive); GI50 (NCI-H460): > 100 µM (inactive); GI50 (SF-268): > 100 µM (inactive); GI50 (SNB-75): 43.3 µM (inactive); GI50 (NCI-H23): > 100 µM (inactive); GI50 (SF-539): > 100 µM (inactive); GI50 (SNB-19): > 100 µM (inactive); GI50 (HCT-15): > 100 µM; GI50 (NCI-H522): > 100 µM (inactive); GI50 (OVCAR-4): > 100 µM (inactive); GI50 (DMS-273): > 100 µM (inactive); GI50 (A549): > 100 µM (inactive); GI50 (SN12C): > 100 µM (inactive); GI50 (CCRF-CEM): > 100 µM (inactive); GI50 (HCT-116): > 100 µM (inactive); GI50 (UACC-257): > 100 µM (inactive); GI50 (MOLT-4): > 100 µM (inactive); GI50 (U-251): > 100 µM (inactive); GI50 (OVCAR-5): > 100 µM (inactive); GI50 (HOP-92): 28.2 µM (inactive); GI50 (A498): > 100 µM (inactive); GI50 (HOP-18): > 100 µM (inactive); GI50 (HL-60): > 100 µM (inactive); GI50 (DMS-114): > 100 µM (inactive); GI50 (786-0): > 100 µM (inactive); GI50 (CAKI-1): > 100 µM (inactive); GI50 (UO-31): > 100 µM (inactive)
